Measured values taken from patent US20050112573A1, “Method of detecting toxic substance” (priority 2001, published 2005).

System: yeast genes (level of expressed mRNA)
Test: DNA chip analysis of expressed mRNA of yeast genes after 2 h culture with a toxic chemical substance
Type: cell-based, Saccharomyces cerevisiae S288C
Settings: for The level of expressed mRNA in the presence of chemical substance/ (ratio to absence): transport facilitation protein gene; for The level of expressed mRNA in the presence of chemical substance/: ratio to no chemical; for The level of expressed mRNA in the presence of chemical substance/ (ratio to absence of chemical substance): stress protein genes, DNA chip
Method: Yeast (Saccharomyces cerevtisiae S288C (α SUC2mal mel gap2 CUP1)) were cultured at 25° C. on YPD medium (yeast extract 1%, polypepton 2%, glucose 2%). One of toxic chemical substances was added to the cell at logarithmic growth phase, and the cell was further cultured for two hours. Cell was cultured without any chemical substance in the same condition, and was used as control. Concentrations of the chemical substances were defined to inhibit the growth of the yeast but not lead to death.
After the completion of cultivation, the culture was centrifuged to collect the cells. To the cells, sodium acetate buffer (50 mM sodium acetate, 10 mM EDTA, 1% SDS) was added, and the mixture was shaken at 65° C. for five minutes, followed by returning to room temperature, and obtaining the supernatant, which procedure was repeated two times. To the supernatant, ½ amount of a solution of phenol/chloroform was added, and the mixture was centrifuged to give a supernatant, which was added with an equal amount of chloroform, and the mixture was centrifuged to give a supernatant. To the supernatant, an equal amount of isopropanol containing 0.3 M sodium acetate was added, and the mixture was allowed to stand at room temperature for 30 minutes, after which the mixture was centrifuged to give a sediment of the whole RNAs. Seventy % ethanol was added to the sediment, and the mixture was again centrifuged to give a sediment, which was then dried and dissolved in water. mRNA was isolated from the whole RNAs as followings. In view of the fact that a poly A chain is attached to the 3′ terminus of mRNA, a polynucleotide having a poly T structure which was immobilized on the surface of latex beads was used to trap the mRNA, and then the mRNA was washed and eluted with spine column (Oligotex-dT30<Super>mRNA Purification Kit, Takara). Reverse transcription of the mRNA was conducted with a reverse transcriptase (Super Script II Reverse Transcriptase; catalogue No. 18064-014, GibcoBRL) using fluorescence-labeled nucleotides to give cDNAs that were introduced with Cy3-dUTP or Cy5-dUTP during the reverse transcription.
The labeled cDNAs were dissolved in TE buffer (10 mM Tris-HCl/1 mM EDTA, pH8.0), and the solution was dropped on the DNA chip containing the whole genes of yeast (DNA Chip Research Inc. Japan) so that the cDNAs were hybridized on the DNA chip at 65° C. for over 12 hours. The fluoresces intensity of the DNA chip was read with a scanner, and the ratio relative to the fluorescence intensity resulting from the absence of chemical substance was estimated as the following, which is shown in Tables 1 to 9: [formula]
In the Tables, “Intensity” indicated in the rightmost column is a value of the level of expressed mRNA of each gene in control cells as divided by the average level of the expressions of the whole genes.

## sodium dodecylbenzosulfonate [(17)]
Yeast gene YDR313C
  The level of expressed mRNA in the presence of chemical substance/in the absence of chemical substance: 1.1
Yeast gene YDR315C
  The level of expressed mRNA in the presence of chemical substance/The level of expressed mRNA in the absence of chemical substance: 1.2
Yeast gene YDR342C
  The level of expressed mRNA in the presence of chemical substance/ (ratio to absence): 1.0
Yeast gene YDR343C
  The level of expressed mRNA in the presence of chemical substance/ (ratio to absence): 1.1
Yeast gene YDR350C
  The level of expressed mRNA in the presence of chemical substance/: 1.4
Yeast gene YDR358W
  The level of expressed mRNA in the presence of chemical substance/The level of expressed mRNA in the absence of chemical substance: 1.9
Yeast gene YDR368W
  The level of expressed mRNA in the presence of chemical substance/in the absence of chemical substance: 1.1
Yeast gene YDR374C
  The level of expressed mRNA in the presence of chemical substance/: 1.0
Yeast gene YDR377W, mitochondria-located protein genes, 2 h culture with chemical
  The level of expressed mRNA in the presence of chemical substance/ (ratio to absence), gene YDR377W: 1.2
Yeast gene YDR387C, ratio of DNA chip fluorescence intensity to that without chemical substance
  The level of expressed mRNA in the presence of chemical substance/ (in its absence), gene YDR387C: 1.2
Yeast gene YDR388W
  The level of expressed mRNA in the presence of chemical substance/The level of expressed mRNA in the absence of chemical substance: 1.2
Yeast gene YDR432W
  The level of expressed mRNA in the presence of chemical substance/The level of expressed mRNA in the absence of chemical substance: 0.7
Yeast gene YDR481C
  The level of expressed mRNA in the presence of chemical substance/The level of expressed mRNA in the absence of chemical substance: 1.2
Yeast gene YDR494W
  The level of expressed mRNA in the presence of chemical substance/: 1.1
Yeast gene YDR497C
  The level of expressed mRNA in the presence of chemical substance/in the absence of chemical substance: 1.6
  The level of expressed mRNA in the presence of chemical substance/ (ratio to absence): 1.6
Yeast gene YDR510W
  The level of expressed mRNA in the presence of chemical substance/The level of expressed mRNA in the absence of chemical substance: 1.1
Yeast gene YDR512C
  The level of expressed mRNA in the presence of chemical substance/: 1.3
Yeast gene YDR516C
  The level of expressed mRNA in the presence of chemical substance/in the absence of chemical substance: 1.1
Yeast gene YDR531W
  The level of expressed mRNA in the presence of chemical substance/: 1.5
Yeast gene YEL027W
  The level of expressed mRNA in the presence of chemical substance/ (ratio to absence): 1.0
Yeast gene YEL039C
  The level of expressed mRNA in the presence of chemical substance/ (ratio to absence of chemical substance): 0.7
Yeast gene YEL041W
  The level of expressed mRNA in the presence of chemical substance/: 1.5
Yeast gene YEL042W
  The level of expressed mRNA in the presence of chemical substance/The level of expressed mRNA in the absence of chemical substance: 0.7
Yeast gene YEL065W
  The level of expressed mRNA in the presence of chemical substance/ (ratio to absence): 0.7
Yeast gene YEL066W
  The level of expressed mRNA in the presence of chemical substance/The level of expressed mRNA in the absence of chemical substance: 1.0
Yeast gene YEL072W
  The level of expressed mRNA in the presence of chemical substance/: 0.8
Yeast gene YER015W, ratio of DNA chip fluorescence intensity to that without chemical substance
  The level of expressed mRNA in the presence of chemical substance/ (in its absence), gene YER015W: 1.6
Yeast gene YER039C
  The level of expressed mRNA in the presence of chemical substance/The level of expressed mRNA in the absence of chemical substance: 1.7
Yeast gene YER045C
  The level of expressed mRNA in the presence of chemical substance/: 1.1
Yeast gene YER053C
  The level of expressed mRNA in the presence of chemical substance/in the absence of chemical substance: 1.2
  The level of expressed mRNA in the presence of chemical substance/ (ratio to absence): 1.2
Yeast gene YER057C
  The level of expressed mRNA in the presence of chemical substance/ (ratio to absence of chemical substance): 1.1
Yeast gene YER091C
  The level of expressed mRNA in the presence of chemical substance/in the absence of chemical substance: 1.2
Yeast gene YER096W
  The level of expressed mRNA in the presence of chemical substance/in the absence of chemical substance: 1.0
Yeast gene YER107C
  The level of expressed mRNA in the presence of chemical substance/The level of expressed mRNA in the absence of chemical substance: 1.1
Yeast gene YER119C
  The level of expressed mRNA in the presence of chemical substance/ (ratio to absence): 1.0
Yeast gene YER124C
  The level of expressed mRNA in the presence of chemical substance/: 0.9
Yeast gene YER130C
  The level of expressed mRNA in the presence of chemical substance/The level of expressed mRNA in the absence of chemical substance: 3.0
Yeast gene YER178W
  The level of expressed mRNA in the presence of chemical substance/in the absence of chemical substance: 1.1
Yeast gene YER181C
  The level of expressed mRNA in the presence of chemical substance/: 0.7
Yeast gene YFL014W
  The level of expressed mRNA in the presence of chemical substance/in the absence of chemical substance: 1.5
Yeast gene YFL028C
  The level of expressed mRNA in the presence of chemical substance/The level of expressed mRNA in the absence of chemical substance: 1.2
Yeast gene YFL030W
  The level of expressed mRNA in the presence of chemical substance/in the absence of chemical substance: 1.0
Yeast gene YFL031W
  The level of expressed mRNA in the presence of chemical substance/in the absence of chemical substance: 1.2
Yeast gene YFL041W
  The level of expressed mRNA in the presence of chemical substance/ (ratio to absence): 1.1
Yeast gene YFL043C
  The level of expressed mRNA in the presence of chemical substance/The level of expressed mRNA in the absence of chemical substance: 1.5
